pIC50: −log10 of the molar value.
System: MCF7
Experiment: Antiproliferative activity against MCF-7 cancer cell line
Format: functional, cell-based
Conditions: Homo sapiens

pIC50	Compound
3.90	CN(C)c1ccc(C(=O)NCCCCCNC(=O)CS)cc1
4.38	O=C(CS)NCCCCCC(=O)Nc1cccc2cccnc12
4.10	O=C(CS)NCCCCCC(=O)Nc1cnc2ccccc2c1

System: PC-3
Experiment: Antiproliferative activity against PC-3 cancer cells
Format: functional, cell-based
Conditions: Homo sapiens

pIC50	Compound
4.00	O=C(CS)NCCCCCNC(=O)c1ccc(-c2ccccc2)cc1
3.96	CN(C)c1ccc(C(=O)NCCCCCNC(=O)CS)cc1
4.48	O=C(CS)NCCCCCC(=O)Nc1cccc2cccnc12
4.30	O=C(CS)NCCCCCC(=O)Nc1cnc2ccccc2c1

Species on record: Homo sapiens
Experiment: Antiproliferative activity against SQ-20B cancer cells
Format: functional
Conditions: Cancer cell lines

Compound	pIC50
O=C(CS)NCCCCCNC(=O)c1ccc(-c2ccccc2)cc1	3.89
CN(C)c1ccc(C(=O)NCCCCCNC(=O)CS)cc1	4.00
O=C(CS)NCCCCCC(=O)Nc1cccc2cccnc12	4.51
O=C(CS)NCCCCCC(=O)Nc1cnc2ccccc2c1	4.00

System: HeLa
Experiment: Antiproliferative activity towards human HeLa cancer cells
Format: functional, cell-based
Conditions: not given

pIC50	Compound
4.10	O=C(CS)NCCCCCNC(=O)c1ccc(-c2ccccc2)cc1
3.97	CN(C)c1ccc(C(=O)NCCCCCNC(=O)CS)cc1
4.52	O=C(CS)NCCCCCC(=O)Nc1cccc2cccnc12
